In ChEMBL document CHEMBL1138872, “Free radical scavengers from the medicinal mushroom Inonotus xeranticus and their proposed biogenesis” (Bioorg Med Chem Lett, 2006):

Columns and labels:
Assay type in all cases: functional
[1] = Superoxide anion radical scavenging activity by xanthine/xanthine oxidase method
[2] = DPPH radical scavenging activity
[3] = ABTS radical scavenging activity

Row | Molecule | IC50 [1] [µM] | IC50 [2] [µM] | IC50 [3] [µM]
1 | O=Cc1ccc(O)c(O)c1 [PROTOCATECHUALDEHYDE] | 25.3 | 29.4 | 5
2 | VITAMIN E | > 100 | 11.5 | 8.8
3 | COc1cc(/C=C/c2cc3c(c(=O)o2)-c2cc(O)c(O)cc2C(OC)O3)ccc1O (stereo unspecified) [METHYLINOSCAVIN D] | 40.7 | > 100 | 8.7
4 | O=C(O)/C=C/c1ccc(O)c(O)c1 [CAFFEIC ACID] | 2.9 | 30 | 2.8

Next, values leading:

Row | IC50 [1] [µM] | IC50 [2] [µM] | IC50 [3] [µM] | Molecule
5 | > 100 | > 100 | 12.5 | COC1Oc2cc(/C=C/c3ccc(O)c(O)c3)oc(=O)c2-c2cc(O)c(O)cc21 (stereo unspecified) [INOSCAVIN D]
6 | > 100 | > 100 | 13.7 | O=c1oc2cc(/C=C/c3ccc(O)c(O)c3)oc(=O)c2c2cc(O)c(O)cc12 [PHELLIGRIDIN D]
7 | > 100 | 27 | 15.7 | O=C(O)c1ccc(O)c(O)c1 [PROTOCATECHUIC ACID]
